Legend:
[1] = system: KG-1 cell line (FGFR 1-fusion); test: Cancer cell line cell viability assay (Cell Titer-Glo), 72 hr; type: cell-based; conditions: Homo sapiens, KG-1, KG-1 cell line (FGFR1-fusion)
Procedure, shortened: (§1)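 Luminescent ATP read-out (Cell Titer-Glo 2.0) after compound exposure, normalised to DMSO-only wells. Dosing: 9 concentrations, 4-fold steps, top 3 μM, triplicates. IC50 derived by log(inhibitor) vs. response 4-parameter fit.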

[2] = system: RT112/84 cell line (FGFR3-fusion); test: as above; type: cell-based; conditions: Homo sapiens, RT112/84, RT112/84 cell line (FGFR3-fusion)
Procedure, shortened: as §1

[3] = system: KATO-III cell line (FGFR2 amplification); test: as above; type: cell-based; conditions: Homo sapiens, KATO III
Procedure, shortened: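 Cells seeded at 5,000-20,000/well, incubated overnight, then treated with a 9-dose, 4-fold dilution series from 3 μM in triplicate at 37° C, 5% CO2. Viability read by Cell Titer-Glo 2.0 luminescence as percent of DMSO control; IC50 from 4-parameter variable-slope sigmoidal fit.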

FGFR3 (V555M) = biological target: T1, FGFR3 (V555M) (Homo sapiens, UniProt P22607, V555M); test: Kinase binding assay (kinase-tagged T7 phage, affinity beads, qPCR), Kd; conditions: V555M mutant; read-out: FGFR3 (V555M) (Kd nM)
T1 construct: made in house; host or cells: E. coli (BL21-derived), T7 phage
T1 sequence (P22607 23-806 V555M): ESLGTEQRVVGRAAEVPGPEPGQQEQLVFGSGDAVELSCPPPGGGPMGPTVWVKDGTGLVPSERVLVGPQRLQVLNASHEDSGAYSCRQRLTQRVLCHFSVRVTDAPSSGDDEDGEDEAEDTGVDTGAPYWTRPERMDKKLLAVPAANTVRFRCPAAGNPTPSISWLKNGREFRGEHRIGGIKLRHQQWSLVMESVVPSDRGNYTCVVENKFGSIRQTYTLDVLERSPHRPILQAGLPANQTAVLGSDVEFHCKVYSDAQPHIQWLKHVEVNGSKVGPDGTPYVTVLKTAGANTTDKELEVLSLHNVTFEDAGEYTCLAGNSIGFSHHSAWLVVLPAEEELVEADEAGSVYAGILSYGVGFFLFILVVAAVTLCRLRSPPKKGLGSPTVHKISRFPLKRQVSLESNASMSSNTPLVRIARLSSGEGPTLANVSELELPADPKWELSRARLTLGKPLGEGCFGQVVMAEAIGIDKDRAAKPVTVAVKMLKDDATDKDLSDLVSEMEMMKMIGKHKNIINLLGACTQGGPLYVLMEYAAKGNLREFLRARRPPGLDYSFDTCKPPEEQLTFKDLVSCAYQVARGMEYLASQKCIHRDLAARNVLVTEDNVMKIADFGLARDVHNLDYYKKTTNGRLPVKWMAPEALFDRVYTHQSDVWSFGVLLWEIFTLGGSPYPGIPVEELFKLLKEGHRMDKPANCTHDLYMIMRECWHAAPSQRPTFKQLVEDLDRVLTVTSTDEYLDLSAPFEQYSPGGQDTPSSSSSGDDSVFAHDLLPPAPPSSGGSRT
Procedure, shortened: (§2)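 Phage-tagged kinase capture on small-molecule affinity resin, compound competition, qPCR quantitation; Kd from Levenberg-Marquardt Hill fit.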

FGFR4 = biological target: T2, FGFR4 (Homo sapiens, UniProt P22455); test: as above; conditions: read-out: FGFR4 (Kd nM)
T2 construct: made in house; host or cells: E. coli (BL21-derived), T7 phage
T2 sequence (P22455 22-802): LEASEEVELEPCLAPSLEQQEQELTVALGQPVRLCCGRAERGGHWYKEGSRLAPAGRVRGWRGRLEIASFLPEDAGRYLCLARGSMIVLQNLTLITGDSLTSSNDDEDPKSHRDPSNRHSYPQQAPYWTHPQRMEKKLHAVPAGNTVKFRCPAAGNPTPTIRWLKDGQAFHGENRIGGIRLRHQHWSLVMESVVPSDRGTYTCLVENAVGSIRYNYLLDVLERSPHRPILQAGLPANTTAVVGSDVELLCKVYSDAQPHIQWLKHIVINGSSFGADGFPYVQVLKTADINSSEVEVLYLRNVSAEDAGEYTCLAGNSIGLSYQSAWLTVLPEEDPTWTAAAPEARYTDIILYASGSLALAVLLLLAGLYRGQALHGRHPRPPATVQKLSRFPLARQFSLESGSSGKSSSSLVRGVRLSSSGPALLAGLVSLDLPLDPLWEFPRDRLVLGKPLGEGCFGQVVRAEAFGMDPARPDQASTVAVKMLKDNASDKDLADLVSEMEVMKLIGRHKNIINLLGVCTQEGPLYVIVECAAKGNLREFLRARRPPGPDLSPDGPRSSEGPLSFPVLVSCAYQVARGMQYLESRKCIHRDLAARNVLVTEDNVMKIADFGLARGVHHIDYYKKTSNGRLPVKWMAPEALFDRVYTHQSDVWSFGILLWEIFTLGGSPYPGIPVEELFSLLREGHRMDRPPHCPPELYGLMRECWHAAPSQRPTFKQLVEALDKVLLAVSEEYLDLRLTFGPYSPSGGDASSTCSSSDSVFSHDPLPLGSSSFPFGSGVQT
Procedure, shortened: as §2

FGFR2 = biological target: T3, FGFR2 (Homo sapiens, UniProt P21802); test: as above; conditions: read-out: FGFR2 (Kd nM)
T3 construct: made in house; host or cells: E. coli (BL21-derived), T7 phage
T3 sequence (P21802 22-821): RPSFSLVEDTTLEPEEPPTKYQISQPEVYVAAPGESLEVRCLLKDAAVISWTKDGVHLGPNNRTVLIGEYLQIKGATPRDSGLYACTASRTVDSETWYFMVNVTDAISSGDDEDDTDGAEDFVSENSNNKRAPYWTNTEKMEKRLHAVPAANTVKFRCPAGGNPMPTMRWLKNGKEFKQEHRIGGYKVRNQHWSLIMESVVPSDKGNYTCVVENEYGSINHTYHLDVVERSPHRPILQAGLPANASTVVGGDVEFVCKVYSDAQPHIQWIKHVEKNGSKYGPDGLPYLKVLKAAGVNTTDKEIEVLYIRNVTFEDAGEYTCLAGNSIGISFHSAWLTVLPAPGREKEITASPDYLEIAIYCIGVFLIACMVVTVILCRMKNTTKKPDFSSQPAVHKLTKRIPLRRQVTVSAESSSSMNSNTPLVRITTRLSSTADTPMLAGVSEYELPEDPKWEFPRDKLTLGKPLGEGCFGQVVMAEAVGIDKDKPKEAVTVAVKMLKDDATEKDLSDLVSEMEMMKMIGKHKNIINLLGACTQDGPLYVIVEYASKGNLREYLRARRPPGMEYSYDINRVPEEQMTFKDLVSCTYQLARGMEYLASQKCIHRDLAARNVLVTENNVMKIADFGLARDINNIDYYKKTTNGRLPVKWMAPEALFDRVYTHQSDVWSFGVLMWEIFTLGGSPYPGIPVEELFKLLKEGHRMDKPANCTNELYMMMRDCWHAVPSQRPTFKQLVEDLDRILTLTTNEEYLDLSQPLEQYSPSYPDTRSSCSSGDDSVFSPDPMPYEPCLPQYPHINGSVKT
Procedure, shortened: as §2

FGFR1 = biological target: T4, FGFR1 (Homo sapiens, UniProt P11362); test: as above; conditions: read-out: FGFR1 (Kd nM)
T4 construct: made in house; host or cells: E. coli (BL21-derived), T7 phage
T4 sequence (P11362 22-822): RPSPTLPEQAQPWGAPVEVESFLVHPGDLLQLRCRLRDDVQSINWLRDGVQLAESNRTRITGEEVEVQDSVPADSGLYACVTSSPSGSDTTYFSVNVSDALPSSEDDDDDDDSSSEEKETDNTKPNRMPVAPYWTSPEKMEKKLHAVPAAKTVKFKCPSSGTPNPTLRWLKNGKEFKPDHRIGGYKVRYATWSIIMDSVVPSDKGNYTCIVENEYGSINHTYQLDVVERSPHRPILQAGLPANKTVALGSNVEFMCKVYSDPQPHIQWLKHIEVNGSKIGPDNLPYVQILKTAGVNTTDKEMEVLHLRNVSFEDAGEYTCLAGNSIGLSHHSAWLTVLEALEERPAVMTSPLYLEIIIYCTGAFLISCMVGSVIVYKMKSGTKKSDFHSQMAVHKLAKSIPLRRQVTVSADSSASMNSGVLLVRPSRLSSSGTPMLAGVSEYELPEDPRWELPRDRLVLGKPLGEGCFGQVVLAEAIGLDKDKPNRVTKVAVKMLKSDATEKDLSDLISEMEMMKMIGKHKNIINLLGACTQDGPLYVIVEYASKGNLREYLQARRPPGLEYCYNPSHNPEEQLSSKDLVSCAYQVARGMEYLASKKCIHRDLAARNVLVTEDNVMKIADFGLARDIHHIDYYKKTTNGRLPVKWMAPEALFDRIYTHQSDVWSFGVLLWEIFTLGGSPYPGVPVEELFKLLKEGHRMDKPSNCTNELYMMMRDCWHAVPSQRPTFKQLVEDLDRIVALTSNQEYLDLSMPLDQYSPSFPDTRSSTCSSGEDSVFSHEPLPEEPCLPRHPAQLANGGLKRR
Procedure, shortened: as §2

FGFR3 = biological target: T5, FGFR3 (Homo sapiens, UniProt P22607); test: as above; conditions: read-out: FGFR3 (Kd nM)
T5 construct: made in house; host or cells: E. coli (BL21-derived), T7 phage
T5 sequence (P22607 23-806): as the sequence (P22607 23-806 V555M) above, with M533V counted along it
Procedure, shortened: as §2

[4] = system: MDA-MB-453 cell line (FGFR4-Y367C); test: Cancer cell line cell viability assay (Cell Titer-Glo), 120 hr; type: cell-based; conditions: Homo sapiens
Procedure, shortened: as §1

[5] = system: HuH7 cell line (FGF19 amplification); test: as above; type: cell-based; conditions: Homo sapiens, Huh-7
Procedure, shortened: as §1

Q: Which results are given for `C[C@@H](Oc1ccc2[nH]nc(-c3ccc(N4C[C@@H](CS(C)(=O)=O)[C@@H]4C)nc3)c2c1)c1c(Cl)cncc1Cl` [Example 203, 5-((R)-1-(3,5-dichloropyridin-4-yl)ethoxy)-3-(6-((2S,3R)-2-methyl-3-((methyl-sulfonyl)meth-yl)azetidin-1-yl)pyridin-3-yl)-1H-indazole]?
A: IC50 [1]: 0.05 to 0.2 µM; IC50 [2]: 0.0001 to 0.05 µM; IC50 [3]: 0.0001 to 0.05 µM; Kd (FGFR3 (V555M)): 1 to 50 nM; Kd (FGFR4): 1 to 50 nM; Kd (FGFR2): 1 to 50 nM; Kd (FGFR1): 1 to 50 nM; Kd (FGFR3): 1 to 50 nM; IC50 [4]: 0.05 to 0.2 µM; IC50 [5]: 0.0001 to 0.05 µM

Q: `C[C@@H]1[C@@H](CS(C)(=O)=O)CN1c1ccc(-c2n[nH]c3ccc(O[C@H](C)c4c(Cl)cncc4Cl)cc23)cn1` [Example 204, 5-((R)-1-(3,5-dichloropyridin-4-yl)ethoxy)-3-(6-((2R,3S)-2-methyl-3-((methyl-sulfonyl)meth-yl)azetidin-1-yl)pyridin-3-yl)-1H-indazole] was tested. Which IC50 [1] did it give?
A: 0.05 to 0.2 µM

Q: And the IC50 [2]?
A: 0.0001 to 0.05 µM

Q: What about the IC50 [3] of the same molecule?
A: 0.0001 to 0.05 µM

Q: What about the Kd (FGFR3 (V555M)) of the same molecule?
A: 1 to 50 nM

Q: What about the Kd (FGFR4) of the same molecule?
A: 1 to 50 nM

Q: And the Kd (FGFR2)?
A: 1 to 50 nM

Q: And the Kd (FGFR1)?
A: 1 to 50 nM

Q: And the Kd (FGFR3)?
A: 1 to 50 nM

Q: What about the IC50 [4] of the same molecule?
A: 0.05 to 0.2 µM

Q: And the IC50 [5]?
A: 0.0001 to 0.05 µM

Reference: patent US20250368666A1, “INDAZOLE COMPOUNDS” (TYRA BIOSCIENCES, INC., priority 2022, published 2025)
